Measurements reported in patent US20240252668A1, “ANTIBODY DRUG CONJUGATES AND METHODS FOR MAKING THEREOF” (Novartis AG, priority 2021, published 2024).
Where two headings read alike, the source gives them in different places. Starred links: 1 amine or outer side, 2 acyl side, 3 side chain; linkers in the order of their positions; H or OH if unused. Non-standard residues stand in square brackets, D forms with d. Residues, ends and D or L forms follow the SMILES beside them. *: point of attachment. Leu(3R-OH,Nα-propionyl) = CCC(=O)N[C@H](C(=O)*)[C@H](O)C(C)C; X1 = CC(C)[C@@H](O[*:3])[C@H](N[*:1])C(=O)[*:2]; NMeT = CN[C@H](C(=O)O)[C@@H](C)O; dPhLac = O=C(O)[C@H](O)Cc1ccccc1; X2 = CC(C)C=C(N[*:1])C(=O)[*:2]; NMeA = CN[C@@H](C)C(=O)O; NMeDha = C=C(NC)C(=O)O

Legend:
[1] = test system: 92.1 uveal melanoma cell line (heterozygous GNAQ Q209L); assay: Cell proliferation assay (resazurin cell viability), 92.1 cell line; type: cell-based
From the text: (§1) Cell Proliferation Assays with Chromodepsins (compounds (A1) and 2-15): Cell line descriptions: 92.1—uveal melanoma cell line, derived from primary tumor, harboring heterozygous GNAQ Q209L mutation. Purchased from Sigma Aldrich. MP41 (CRL-3297) -uveal melanoma cell line, derived from primary tumor, harboring heterozygous GNA11 Q209L mutation. Purchased from ATCC. A375—skin melanoma cell line, harboring homozygous BRAF V600E mutation. Origin: Cancer Cell Line Encyclopedia (CCLE). SK-MEL-30—skin melanoma cell line, harboring heterozygous NRAS Q61K mutation. Origin: CCLE.
(§2) Cells were cultured in 96-well plates in a total volume of 100 μL at 37° C., 5% CO2 and 95% relative humidity. All cell lines were cultured in RPMI Medium (RPMI 1640 w/o L-glutamine, Bioconcept ref. 1-41F01-I) except A375, DMEM medium (DMEM high glucose (4.5 g/L), Bioconcept, ref. 1-26F01-I), and supplemented with 10% FCS (Bioconcept, ref. 2-01F30-I). Two to three thousand cells were seeded in 96-well plates per well the night before they were treated with compounds (concentration range: from 260 nM to 0.036 nM with ⅓ dilution steps; for 7 the concentration range was increased from 10000 nM to 1.52 nM with ⅓ dilution steps). Cell viability was measured by addition of 10 ul of resazurin per well after 96 hours of treatment. Results were analyzed and plotted using GraphPad Prism 9.0.1.

[2] = test system: MP41 uveal melanoma cell line (heterozygous GNA11 Q209L); assay: Cell proliferation assay (resazurin cell viability), MP41 cell line; type: cell-based
From the text: as §1, §2

[3] = test system: A375 skin melanoma cell line (homozygous BRAF V600E); assay: Cell proliferation assay (resazurin cell viability), A375 cell line; type: cell-based
From the text: as §1, §2

[4] = test system: SK-MEL-30 skin melanoma cell line (heterozygous NRAS Q61K); assay: Cell proliferation assay (resazurin cell viability), SK-MEL-30 cell line; type: cell-based
From the text: as §1, §2

MDCK-LE monolayers = assay: Cell-based transwell assay with MDCK-low efflux monolayers (passive permeability); type: in vitro ADME; conditions: MDCK-LE monolayers
Description: Cell-based transwell assays with MDCK-low efflux monolayers: Compounds (A1) and 2-15 were tested in MDCK cell sub-clones with low effluxt ransporter activity (MDCK-LE) in order to determine their passive permeability. The incubations were performed at a contract research organization as described previously.

[5] = EPSA determination by supercritical fluid chromatography; type: physicochemical; conditions: modified EPSA method, SFC
Description: […] by supercritical fluid chromatography: Compounds (A1) and 2-15 were tested by supercritical fluid chromatography (SFC) to determine their ESAPSA values. Samples were analyzed using a Chirex 3014 column ([…], 3×100 mm column, 100 Å pore size; Phenomenex. The starting conditions were 5% methanol containing 20 mM ammonium formate and 95% scCO2. The gradient was increased linearly to 60% methanol containing 20 mM ammonium formate in 4.5 min.

[6] = Plasma incubation of compound (A1), human plasma, LC-MS/MS quantification; type: in vitro ADME; conditions: formed in incubation of (A1) in human plasma, 37° C.
Description: Plasma incubations and sample preparation: Compound (A1) was spiked at 5.00 μg/mL in PBS and pooled mixed gender mouse (CD-1), cynomolgus monkey and human plasma. Samples were incubated on a Thermomixer (Eppendorf) at 37° C. while shaking at 650 rpm. Aliquots of 50 μL (n=3) were drawn from each incubation tube following 0, 0.5, 1, 2, 4, 8 and 24 h of incubation. 50 μL of sample was quenched with 200 μL of acetonitrile, containing both generic internal standards, glybenclamide and warfarin, at 62.5 ng/mL. Samples were briefly vortexed and centrifuged for 20 min at 4000 rpm and 4° C. 200 μL of the supernatant was transferred into a clean 800 μL 96-well sample collection plate.
Quantification by LC-MS/MS: LC-MS/MS analysis was conducted with a Shimadzu Nexera UPLC coupled to AB Sciex QTRAP 6500 using the SRM acquisition mode (3 μL injected). Samples were analyzed using a ACE 3° C.18-PFP (3 μM, 2.1×50 mm column) at a column temperature of 65° C. The starting conditions were 97% H20 containing 0.1% formic acid and 3% CH3CN containing 0.1% formic acid. Quantification of compound (A1) and 5 was performed by MS-MRM (electrospray in positive mode, ion spray voltage: 5000 V, source temperature: 500° C., curtain gas: 25 psig, nebulizer gas: 60 psig, turbo ion spray gas: 40 psig, mass range: low, resolution Q1/Q3: unit, collision gas: medium, dwell time: 12 msec). Separate calibration curves were established with calibration standards of compounds (A1) and 5 at concentrations of 10.0, 5.00, 2.50, 1.00, 0.500, 0.100, 0.050 and 0.010 μg/mL respectively. Peak integration and quantification was conducted with the AB Sciex Analyst software (v.1.7) using the Analyst Classic algorithm. […]

Compound `C=C(C(=O)N[C@@H](C)C(=O)N(C)[C@@H](C)C(=O)N[C@H](C(=O)N(C)[C@H](C(=O)O)[C@@H](C)OC)[C@H](OC(=O)[C@@H](NC(=O)CC)[C@H](O)C(C)C)C(C)C)N(C)C(=O)[C@@H](Cc1ccccc1)OC(=O)C(=CC(C)C)NC(C)=O` [Compound 5] (Ac-[X2][dPhLac][NMeDha]A[NMeA][X1](Leu(3R-OH,Nα-propionyl))[NMeT](Me)-OH) has a GI50 ([1]; 92.1 (GNAQ Q209L), 96 hours of treatment, read-out: GI50 by cell line, 92.1) of over 260 nM, a GI50 ([1]; 92.1 cell line, average of Rep. 1 and 2, read-out: GI50 92.1 Average) of over 260 nM and a GI50 ([1]; 92.1 cell line, replicate 1, read-out: GI50 92.1 Rep. 1) of over 260 nM. For the same compound, the GI50 ([1]; 92.1 cell line, replicate 2, read-out: GI50 92.1 Rep. 2) was over 260 nM, the GI50 ([2]; MP41 (GNA11 Q209L), 96 hours of treatment, read-out: GI50 by cell line, MP41) was over 260 nM and the GI50 ([2]; MP41 cell line, average of Rep. 1 and 2, read-out: GI50 MP41 Average) was over 260 nM. It also gave a GI50 ([2]; MP41 cell line, replicate 1, read-out: GI50 MP41 Rep. 1) of over 260 nM, a GI50 ([2]; MP41 cell line, replicate 2, read-out: GI50 MP41 Rep. 2) of over 260 nM and a GI50 ([3]; A375 (GNAQ/11 wild type), 96 hours of treatment, read-out: GI50 by cell line, A375) of over 260 nM. The GI50 ([3]; A375 cell line, average of Rep. 1 and 2, read-out: GI50 A375 Average) was over 260 nM, the GI50 ([3]; A375 cell line, replicate 1, read-out: GI50 A375 Rep. 1) was over 260 nM and the GI50 ([3]; A375 cell line, replicate 2, read-out: GI50 A375 Rep. 2) was over 260 nM. It also gave a GI50 ([4]; SK-MEL-30 (GNAQ/11 wild type), 96 hours of treatment, read-out: GI50 by cell line, SK-MEL-30) of over 260 nM, a GI50 ([4]; SK-MEL-30 cell line, average of Rep. 1 and 2, read-out: GI50 SK-MEL-30 Average) of over 260 nM and a GI50 ([4]; SK-MEL-30 cell line, replicate 1, read-out: GI50 SK-MEL-30 Rep. 1) of over 260 nM. For the same compound, the GI50 ([4]; SK-MEL-30 cell line, replicate 2, read-out: GI50 SK-MEL-30 Rep. 2) was over 260 nM, the “% Fraction absorbed” value (MDCK-LE monolayers) was 4.2% and the “% Recovery” value (MDCK-LE monolayers) was 86%. The “Papp A − B” value (MDCK-LE monolayers) was 0.27 ×10⁻⁶ cm/s, the EPSA [5] was 229 A^2 and the “Concentration of 5, Aliquot 1” value ([6]; 0 h) was “BLQ”. For the same compound, the “Concentration of 5, Aliquot 2” value ([6]; 0 h) was “BLQ”, the “Concentration of 5, Aliquot 3” value ([6]; 0 h) was “BLQ” and the “Concentration of 5, Aliquot 1” value ([6]; 0.5 h) was 61.3 ng/mL. For the same compound, the “Concentration of 5, Aliquot 2” value ([6]; 0.5 h) was 67.3 ng/mL, the “Concentration of 5, Aliquot 3” value ([6]; 0.5 h) was 67.1 ng/mL and the “Mean concentration of 5” value ([6]; 0.5 h) was 65.2 ng/mL. For the same compound, the “Concentration of 5, Aliquot 1” value ([6]; 1 h) was 117 ng/mL, the “Concentration of 5, Aliquot 2” value ([6]; 1 h) was 123 ng/mL and the “Concentration of 5, Aliquot 3” value ([6]; 1 h) was 142 ng/mL. For the same compound, the “Mean concentration of 5” value ([6]; 1 h) was 127 ng/mL, the “Concentration of 5, Aliquot 1” value ([6]; 2 h) was 255 ng/mL and the “Concentration of 5, Aliquot 2” value ([6]; 2 h) was 289 ng/mL. For the same compound, the “Concentration of 5, Aliquot 3” value ([6]; 2 h) was 317 ng/mL, the “Mean concentration of 5” value ([6]; 2 h) was 287 ng/mL and the “Concentration of 5, Aliquot 1” value ([6]; 4 h) was 615 ng/mL. The “Concentration of 5, Aliquot 2” value ([6]; 4 h) was 647 ng/mL, the “Concentration of 5, Aliquot 3” value ([6]; 4 h) was 677 ng/mL and the “Mean concentration of 5” value ([6]; 4 h) was 646 ng/mL. For the same compound, the “Concentration of 5, Aliquot 1” value ([6]; 8 h) was 1370 ng/mL, the “Concentration of 5, Aliquot 2” value ([6]; 8 h) was 1480 ng/mL and the “Concentration of 5, Aliquot 3” value ([6]; 8 h) was 1570 ng/mL. For the same compound, the “Mean concentration of 5” value ([6]; 8 h) was 1470 ng/mL, the “Concentration of 5, Aliquot 1” value ([6]; 24 h) was 3140 ng/mL and the “Concentration of 5, Aliquot 2” value ([6]; 24 h) was 2820 ng/mL. The “Concentration of 5, Aliquot 3” value ([6]; 24 h) was 3140 ng/mL and the “Mean concentration of 5” value ([6]; 24 h) was 3030 ng/mL.
